Measured values reported in patent US4465674A, “Azahomoerythromycin D derivative and intermediates therefor” (Pfizer Inc., priority 1983, dated 1984).
In brackets after ≈: the same amount, converted by molar mass. Read-outs that look alike come from different tables or passages of the source.

Columns and labels:
[1] = system: Staph. epi; assay: in vitro MIC in BHI broth, Staph. epi; assay type: cell-based
From the text: (§1) Generally twelve 2 fold dilutions of the test compound are employed, with initial concentration of the test drug being in the range of 50 to 200 mcg./ml.
(§2) The susceptibility (MIC) of the test organism is accepted as the lowest concentration of compound capable of producing complete inhibition of growth as judged by the naked eye.

[2] = system: Past. mult.; assay: in vitro MIC in BHI broth, Past. mult.; assay type: cell-based
From the text: as §1, §2

[3] = system: Staph. aur.; assay: in vitro MIC in BHI broth, Staph. aur.; assay type: cell-based
From the text: as §1, §2

[4] = system: Strep. faec.; assay: in vitro MIC in BHI broth, Strep. faec.; assay type: cell-based
From the text: as §1, §2

[5] = system: Prov. strua.; assay: in vitro MIC in BHI broth, Prov. strua.; assay type: cell-based
From the text: as §1, §2

[6] = system: H. influ.; assay: in vitro MIC in BHI broth, H. influ.; assay type: cell-based
From the text: as §1, §2

[7] = system: Serr. mar.; assay: in vitro MIC in BHI broth, Serr. mar.; assay type: cell-based
From the text: as §1, §2

[8] = system: Neiss. sic.; assay: in vitro MIC in BHI broth, Neiss. sic.; assay type: cell-based
From the text: as §1, §2

[9] = system: Kleb. oxy.; assay: in vitro MIC in BHI broth, Kleb. oxy.; assay type: cell-based
From the text: as §1, §2

[10] = system: E. Coli; assay: in vitro MIC in BHI broth, E. Coli; assay type: cell-based; conditions: Escherichia coli
[11] = system: Strep. pyog.; assay: in vitro MIC in BHI broth, Strep. pyog.; assay type: cell-based
From the text: as §1, §2

[12] = system: Ent. cloac.; assay: in vitro MIC in BHI broth, Ent. cloac.; assay type: cell-based
From the text: as §1, §2

[13] = system: Ent. aerog.; assay: in vitro MIC in BHI broth, Ent. aerog.; assay type: cell-based
[14] = system: Kleb. pn.; assay: in vitro MIC in BHI broth, Kleb. pn.; assay type: cell-based
[15] = system: erythromycin A and D susceptible organisms and Gram negative microorganisms resistant to erythromycin A and D; assay: spectrum of antibacterial activity; assay type: cell-based
From the text: as §1

[16] = serum levels after oral dosage (micro-biological bioassay) in mice; assay type: in vivo
Experimental: Additionally, compound (II) is tested in vivo by the well-known mouse protection test, or by a micro-biological (bioassay) determination of serum levels in a variety of mammals (e.g., mouse, rat, dog).

[17] = Staph. epi 111, BHI broth, read-out: MIC
[18] = Past. mult. 001, BHI broth, read-out: MIC
[19] = Prov. strua. 013, BHI broth, read-out: MIC
[20] = Serr. mar. 017, BHI broth, read-out: MIC
[21] = Neiss. sic. 000, BHI broth, read-out: MIC
[22] = Kleb. oxy. 024, BHI broth, read-out: MIC
[23] = Strep. pyog. 203, BHI broth, read-out: MIC
[24] = Ent. cloac. 009, BHI broth, read-out: MIC
[25] = Ent. aerog. 040, BHI broth, read-out: MIC
[26] = Kleb. pn. 009, BHI broth, read-out: MIC

| Compound | MIC [1, 17] | MIC [2, 18] | MIC ([3]; Staph. aur. 005, read-out: MIC) | MIC ([3]; Staph. aur. 052, read-out: MIC) | MIC ([3]; Staph. aur. 400, read-out: MIC) | MIC [4] | MIC [5, 19] | MIC ([6]; H. influ. 036, read-out: MIC) | MIC ([6]; H. influ. 038, read-out: MIC) | MIC ([6]; H. influ. 042, read-out: MIC) | MIC ([6]; H. influ. 051) | MIC [7, 20] | MIC [9, 22] | MIC ([10]; E. Coli 129) | MIC ([10]; E. Coli 266) | MIC ([10]; E. Coli 470) | MIC [11, 23] | MIC [12, 24] | MIC ([10]; E. Coli 125) | MIC ([14]; Kleb. pn. 031, BHI broth) | other results |
| --- | --- | --- | --- | --- | --- | --- | --- | --- | --- | --- | --- | --- | --- | --- | --- | --- | --- | --- | --- | --- | --- |
| CC[C@H]1OC(=O)[C@H](C)[C@@H](O[C@H]2C[C@@](C)(OC)[C@@H](O)[C@H](C)O2)[C@H](C)[C@@H](O[C@@H]2O[C@H](C)C[C@H](N(C)C)[C@H]2O)[C@](C)(O)C[C@@H](C)CN(C)[C@H](C)[C@@H](O)[C@]1(C)O [(3), 9-deoxo-9a-methyl-9a-aza-9a-homoerythromycin A] | 0.1 µg/mL (≈ 0.134 µM) | 0.1 µg/mL (≈ 0.134 µM) | 0.2 µg/mL (≈ 0.267 µM) | 0.39 µg/mL (≈ 0.521 µM) | 25 µg/mL (≈ 33.4 µM) | 1.56 µg/mL (≈ 2.08 µM) | 50 µg/mL (≈ 66.8 µM) | 0.78 µg/mL (≈ 1.04 µM) | 0.78 µg/mL (≈ 1.04 µM) | 0.78 µg/mL (≈ 1.04 µM) | 1.56 µg/mL (≈ 2.08 µM) | 50 µg/mL (≈ 66.8 µM) | 25 µg/mL (≈ 33.4 µM) | 6.25 µg/mL (≈ 8.34 µM) | 6.25 µg/mL (≈ 8.34 µM) | 0.78 µg/mL (≈ 1.04 µM) | 0.025 µg/mL (≈ 0.0334 µM) | 25 µg/mL (≈ 33.4 µM) |  |  | MIC ([6]; H. influ. 073, read-out: MIC): 0.78 µg/mL (≈ 1.04 µM); MIC ([6]; H. influ. 078, read-out: MIC): 0.39 µg/mL (≈ 0.521 µM); MIC ([6]; H. influ. 081, read-out: MIC): 0.78 µg/mL (≈ 1.04 µM); MIC [8, 21]: 0.39 µg/mL (≈ 0.521 µM) |
| CC[C@H]1OC(=O)[C@H](C)[C@@H](O[C@H]2C[C@@](C)(OC)[C@@H](O)[C@H](C)O2)[C@H](C)[C@@H](O[C@@H]2O[C@H](C)C[C@H](N(C)C)[C@H]2O)[C@](C)(O)C[C@@H](C)C(=O)[C@H](C)[C@@H](O)[C@]1(C)O [(1), Erythromycin A] | 0.05 µg/mL (≈ 0.0681 µM) | 0.78 µg/mL (≈ 1.06 µM) | 0.05 µg/mL (≈ 0.0681 µM) | 0.1 µg/mL (≈ 0.136 µM) |  |  | > 50 µg/mL |  |  |  | 3.12 µg/mL (≈ 4.25 µM) | > 50 µg/mL | > 50 µg/mL | > 50 µg/mL | > 50 µg/mL | 1.56 µg/mL (≈ 2.13 µM) | 0.025 µg/mL (≈ 0.0341 µM) | > 50 µg/mL | > 50 µg/mL | (a) (greater than 50) | MIC [13, 25]: > 50 µg/mL; MIC ([3]; Staph. aur. 400): 6.25 µg/mL (≈ 8.52 µM); MIC ([4]; Strep. faec. 006, BHI broth, read-out: MIC): 0.39 µg/mL (≈ 0.531 µM); MIC ([6]; H. influ. 012): 3.12 µg/mL (≈ 4.25 µM); MIC ([6]; H. influ. 036): 3.12 µg/mL (≈ 4.25 µM); MIC ([6]; H. influ. 038): 1.56 µg/mL (≈ 2.13 µM); MIC ([6]; H. influ. 042): 3.12 µg/mL (≈ 4.25 µM); MIC ([6]; H. influ. 073): 3.12 µg/mL (≈ 4.25 µM); MIC ([6]; H. influ. 078): 1.56 µg/mL (≈ 2.13 µM); MIC ([6]; H. influ. 081): 3.12 µg/mL (≈ 4.25 µM); MIC [8]: 3.12 µg/mL (≈ 4.25 µM); MIC [14, 26]: > 50 µg/mL |
| CC[C@H]1OC(=O)[C@H](C)[C@@H](O[C@H]2C[C@@](C)(O)[C@@H](O)[C@H](C)O2)[C@H](C)[C@@H](O[C@@H]2O[C@H](C)C[C@H](N(C)C)[C@H]2O)[C@](C)(O)C[C@@H](C)C(=O)[C@H](C)[C@@H](O)[C@H]1C [(2), Erythromycin D] |  |  |  |  |  | 0.39 µg/mL (≈ 0.554 µM) |  |  |  |  | 12.5 µg/mL (≈ 17.8 µM) |  |  | > 50 µg/mL | > 50 µg/mL | 3.12 µg/mL (≈ 4.43 µM) |  |  | > 50 µg/mL | (a) (greater than 50) | MIC [13]: > 50 µg/mL; MIC [1]: 0.2 µg/mL (≈ 0.284 µM); MIC [2]: 6.25 µg/mL (≈ 8.88 µM); MIC ([3]; Staph. aur. 005): 0.39 µg/mL (≈ 0.554 µM); MIC ([3]; Staph. aur. 052): 0.39 µg/mL (≈ 0.554 µM); MIC ([3]; Staph. aur. 400): 6.25 µg/mL (≈ 8.88 µM); MIC [5]: > 50 µg/mL; MIC ([6]; H. influ. 012): 25 µg/mL (≈ 35.5 µM); MIC ([6]; H. influ. 036): 50 µg/mL (≈ 71 µM); MIC ([6]; H. influ. 038): 25 µg/mL (≈ 35.5 µM); MIC ([6]; H. influ. 042): 25 µg/mL (≈ 35.5 µM); MIC ([6]; H. influ. 073): 50 µg/mL (≈ 71 µM); MIC ([6]; H. influ. 078): 12.5 µg/mL (≈ 17.8 µM); MIC ([6]; H. influ. 081): 25 µg/mL (≈ 35.5 µM); MIC [7]: > 50 µg/mL; MIC [8]: 6.25 µg/mL (≈ 8.88 µM); MIC [9]: > 50 µg/mL; MIC [11]: 0.025 µg/mL (≈ 0.0355 µM); MIC [12]: > 50 µg/mL; MIC [14]: > 50 µg/mL |
| CC[C@H]1OC(=O)[C@H](C)[C@@H](O[C@H]2C[C@@](C)(O)[C@@H](O)[C@H](C)O2)[C@H](C)[C@@H](O[C@@H]2O[C@H](C)C[C@H](N(C)C)[C@H]2O)[C@](C)(O)C[C@@H](C)CN(C)[C@H](C)[C@@H](O)[C@H]1C [Compound (II), 9-deoxo-9a-methyl-9a-aza-9a-homoerythromycin D] | 0.39 µg/mL (≈ 0.542 µM) | 0.2 µg/mL (≈ 0.278 µM) | 0.39 µg/mL (≈ 0.542 µM) | 0.78 µg/mL (≈ 1.08 µM) | > 50 µg/mL |  | > 50 µg/mL | 3.12 µg/mL (≈ 4.34 µM) | 1.56 µg/mL (≈ 2.17 µM) | 3.12 µg/mL (≈ 4.34 µM) |  | > 50 µg/mL | 50 µg/mL (≈ 69.5 µM) | 12.5 µg/mL (≈ 17.4 µM) | 12.5 µg/mL (≈ 17.4 µM) | 0.39 µg/mL (≈ 0.542 µM) | 0.025 µg/mL (≈ 0.0348 µM) | > 50 µg/mL | 25 µg/mL (≈ 34.8 µM) | 50 micrograms/ml. | MIC [13, 25]: 50 µg/mL (≈ 69.5 µM); spectrum of antibacterial activity [15]: relatively broad spectrum of antibacterial activity which includes erythromycin A and D susceptible organisms and, in addition, many Gram negative microorganisms resistant to erythromycin A and D; absorption after oral dosage [16]: exceptionally well absorbed; serum levels [16]: exceptionally high and long lasting serum levels; MIC ([6]; H. influ. 012, read-out: MIC): 3.12 µg/mL (≈ 4.34 µM); MIC ([6]; H. influ. 051, read-out: MIC): 3.12 µg/mL (≈ 4.34 µM); MIC ([6]; H. influ. 073, read-out: MIC): 0.39 µg/mL (≈ 0.542 µM); MIC ([6]; H. influ. 078, read-out: MIC): 0.78 µg/mL (≈ 1.08 µM); MIC ([6]; H. influ. 081, read-out: MIC): 3.12 µg/mL (≈ 4.34 µM); MIC [8, 21]: 0.78 µg/mL (≈ 1.08 µM); MIC [14, 26]: 50 µg/mL (≈ 69.5 µM) |
